According to ChEMBL document CHEMBL1122770, “Quantitative structure-activity relationship of insect juvenile hormone mimetic compounds” (J Med Chem, 1984):

What was measured:
[1] = Partition coefficient (logP); format: physicochemical; conditions: octanol/water
Tenebrio molitor = assay: Juvenile hormone mimetic activity in Tenebrio molitor (yellow mealworm); format: functional; design: unit not given here

CCOC(=O)/C=C(C)/C=C/CC(C)CCC(OC)C(C)C (stereo not drawn)
logP ([1]; read-out: logP): 5.54 | pI50 (Tenebrio molitor): 2.54

COC(C)(C)CCCC(C)C/C=C/C(C)=C/C(=O)SC(C)C (stereo not drawn)
logP ([1]; read-out: logP): 7.19 | pI50 (Tenebrio molitor): 5.04

COC(C)(C)CCCC(C)C/C=C/C(C)=C/C(N)=O (stereo not drawn)
logP ([1]; read-out: logP): 3.52 | pI50 (Tenebrio molitor): 0.05

CC(/C=C/CC(C)CCCC(C)(C)O)=C\C(=O)OC(C)C (stereo not drawn)
logP ([1]; read-out: logP): 5.06 | pI50 (Tenebrio molitor): 4.33

CCN(CC)C(=O)/C=C(C)/C=C/CC(C)CCCC(C)C (stereo not drawn)
logP ([1]; read-out: logP): 6.02 | pI50 (Tenebrio molitor): 4.63

CCN(CC)C(=O)/C=C(C)/C=C/CC(C)CCC=C(C)C (stereo not drawn)
logP ([1]; read-out: logP): 5.47 | pI50 (Tenebrio molitor): 1.7

COC(C)(C)CCCC(C)C/C=C/C(C)=C/C(=O)SC (stereo not drawn)
logP ([1]; read-out: logP): 6.24 | pI50 (Tenebrio molitor): 3.47

CC(/C=C/CC(C)CCCC(C)C)=C\C(=O)c1ccccc1 (stereo not drawn)
logP ([1]; read-out: logP): 7.26 | pI50 (Tenebrio molitor): 3.52

CCN(CC)C(=O)/C=C(C)/C=C/CC(C)CCCC(C)(C)OC (stereo not drawn)
logP ([1]; read-out: logP): 4.82 | pI50 (Tenebrio molitor): 5.51

CCSC(=O)/C=C(C)/C=C/CC(C)CCCC(C)(C)OC (stereo not drawn)
logP ([1]; read-out: logP): 6.78 | pI50 (Tenebrio molitor): 3.49

CCNC(=O)OC(C)(C)CCCC(C)C/C=C/C(C)=C/C(=O)OC(C)C (stereo not drawn)
logP ([1]; read-out: logP): 6.06 | pI50 (Tenebrio molitor): 1.79

CC(=O)OC(C)(C)CCCC(C)C/C=C/C(C)=C/C(=O)OC(C)C (stereo not drawn)
logP ([1]; read-out: logP): 5.98 | pI50 (Tenebrio molitor): 3.81

CC(/C=C/CC(C)CCCC(C)C)=C\C(=O)NC(C)C (stereo not drawn)
logP ([1]; read-out: logP): 5.65 | pI50 (Tenebrio molitor): 4.33

COC(CCC(C)C/C=C/C(C)=C/C(=O)OC(C)C)C(C)C (stereo not drawn)
logP ([1]; read-out: logP): 5.95 | pI50 (Tenebrio molitor): 3.82

C/C=C/COC(=O)/C=C(C)/C=C/CC(C)CCCC(C)(C)OC (stereo not drawn)
logP ([1]; read-out: logP): 6.07 | pI50 (Tenebrio molitor): 2.25

CC#CCOC(=O)/C=C(C)/C=C/CC(C)CCCC(C)C (stereo not drawn)
logP ([1]; read-out: logP): 6.4 | pI50 (Tenebrio molitor): 2.12

CCOC(=O)/C=C(C)/C=C/CC(C)CCCC(C)(C)OC(C)=O (stereo not drawn)
logP ([1]; read-out: logP): 5.57 | pI50 (Tenebrio molitor): 2.28

CCCC(=O)/C=C(C)/C=C/CC(C)CCCC(C)C (stereo not drawn)
logP ([1]; read-out: logP): 6.81 | pI50 (Tenebrio molitor): 4.7

COC(C)(C)CCCC(C)C/C=C/C(C)=C/C(=O)O (stereo not drawn)
logP ([1]; read-out: logP): 4.79

C#CCOC(=O)/C=C(C)/C=C/CC(C)CCCC(C)C (stereo not drawn) [KINOPRENE]
logP ([1]; read-out: logP): 5.86

COC(C)(C)CCCC(C)C/C=C/C(C)=C/C(=O)OC1CCC1 (stereo not drawn)
logP ([1]; read-out: logP): 6.44 | pI50 (Tenebrio molitor): 2.79

CCOC(=O)/C=C(C)/C=C/CC(C)CCCC(C)(C)C (stereo not drawn)
logP ([1]; read-out: logP): 7.15 | pI50 (Tenebrio molitor): 2.5

C=CCOC(=O)/C=C(C)/C=C/CC(C)CCCC(C)(C)OC (stereo not drawn)
logP ([1]; read-out: logP): 5.53 | pI50 (Tenebrio molitor): 1.41

C=CCNC(=O)/C=C(C)/C=C/CC(C)CCCC(C)C (stereo not drawn)
logP ([1]; read-out: logP): 5.23 | pI50 (Tenebrio molitor): 4.33

C=C(C)CCCC(C)C/C=C/C(C)=C/C(=O)OC(C)C (stereo not drawn)
logP ([1]; read-out: logP): 6.6 | pI50 (Tenebrio molitor): 4.1

CCCC(=O)/C=C(C)/C=C/CC(C)CCCC(C)(C)OC (stereo not drawn)
logP ([1]; read-out: logP): 5.61 | pI50 (Tenebrio molitor): 5.73

CCC(C)OC(=O)/C=C(C)/C=C/CC(C)CCCC(C)C (stereo not drawn)
logP ([1]; read-out: logP): 7.69 | pI50 (Tenebrio molitor): 3.87

C=CCSC(=O)/C=C(C)/C=C/CC(C)CCCC(C)C (stereo not drawn)
logP ([1]; read-out: logP): 7.97 | pI50 (Tenebrio molitor): 3.26

C=C(C)CCCC(C)C/C=C/C(C)=C/C(=O)OCC (stereo not drawn)
logP ([1]; read-out: logP): 6.19 | pI50 (Tenebrio molitor): 2.49

CSC(=O)/C=C(C)/C=C/CC(C)CCCC(C)C (stereo not drawn)
logP ([1]; read-out: logP): 7.44 | pI50 (Tenebrio molitor): 3.25

CCC(=O)/C=C(C)/C=C/CC(C)CCCC(C)C (stereo in doubt; 101)
logP [1]: 6.68 | pI50 (Tenebrio molitor): 4.1

COC(CCC(C)C/C=C/C(C)=C/C(=O)OC(C)C)C(C)(C)OC (stereo not drawn)
logP ([1]; read-out: logP): 4.75 | pI50 (Tenebrio molitor): 3.88

CCC(C)C(=O)/C=C(C)/C=C/CC(C)CCCC(C)(C)OC (stereo not drawn)
logP ([1]; read-out: logP): 6.02 | pI50 (Tenebrio molitor): 3.54

CCSC(=O)/C=C(C)/C=C/CC(C)CCCC(C)(C)OC(C)=O (stereo not drawn)
logP ([1]; read-out: logP): 6.81 | pI50 (Tenebrio molitor): 2.83

COC(C)(C)CCCC(C)C/C=C/C(C)=C/C(=O)OC1CCCC1 (stereo not drawn)
logP ([1]; read-out: logP): 7.01 | pI50 (Tenebrio molitor): 4.32

COC(C)(C)CCCC(C)C/C=C/C(C)=C/C(=O)CC(C)C (stereo not drawn)
logP ([1]; read-out: logP): 6.02 | pI50 (Tenebrio molitor): 3.49

CCSC(=O)/C=C(C)/C=C/CC(C)CCCC(C)C (stereo not drawn)
logP ([1]; read-out: logP): 7.98 | pI50 (Tenebrio molitor): 4.05

CC(/C=C/CC(C)CCCC(C)(C)OC=O)=C\C(=O)OC(C)C (stereo not drawn)
logP ([1]; read-out: logP): 5.4 | pI50 (Tenebrio molitor): 4.43

CC(/C=C/CC(C)CCCC(C)C)=C\C(=O)Oc1ccccc1 (stereo not drawn)
logP ([1]; read-out: logP): 7.67 | pI50 (Tenebrio molitor): 1.5

CCCOC(=O)/C=C(C)/C=C/CC(C)CCCC(C)C (stereo not drawn)
logP ([1]; read-out: logP): 7.28 | pI50 (Tenebrio molitor): 2.71

CCOC(=O)/C=C(C)/C=C/CC(C)CCC=C(C)C (stereo not drawn)
logP ([1]; read-out: logP): 6.19 | pI50 (Tenebrio molitor): 2.38

COC(C)(C)CCCC(C)C/C=C/C(C)=C/C(=O)OCCC(C)C (stereo not drawn)
logP ([1]; read-out: logP): 7.03 | pI50 (Tenebrio molitor): 0.81

CCN(CC)C(=O)/C=C(C)/C=C/CC(C)CCC1OC1(C)C (stereo not drawn)
logP ([1]; read-out: logP): 4.04 | pI50 (Tenebrio molitor): 3.85

CC(/C=C/CC(C)CCCC(C)C)=C\C(=O)OCC(C)C (stereo not drawn)
logP ([1]; read-out: logP): 7.69 | pI50 (Tenebrio molitor): 3.8

CC(C)=CCCC(C)C/C=C/C(C)=C/C(=O)OC(C)C (stereo not drawn)
logP ([1]; read-out: logP): 6.6 | pI50 (Tenebrio molitor): 3.67

COC(C)(C)CCCC(C)C/C=C/C(C)=C/C(=O)NC1CC1 (stereo not drawn)
logP [1]: 4.04 | pI50 (Tenebrio molitor): 3.74

C=CCOC(=O)/C=C(C)/C=C/CC(C)CCCC(C)C (stereo not drawn)
logP ([1]; read-out: logP): 6.73 | pI50 (Tenebrio molitor): 3.51

CCNC(=O)/C=C(C)/C=C/CC(C)CCC=C(C)C (stereo not drawn)
logP ([1]; read-out: logP): 4.69 | pI50 (Tenebrio molitor): 4.78

CCOC(=O)/C=C(C)/C=C/CC(C)CCCC(C)C (stereo not drawn) [HYDROPRENE]
logP ([1]; read-out: logP): 6.74

CCOC(=O)/C=C(C)/C=C/CC(C)CCCC(C)(C)SC (stereo not drawn)
logP ([1]; read-out: logP): 6.36 | pI50 (Tenebrio molitor): 2.24

CCSC(=O)/C=C(C)/C=C/CC(C)CCCC(C)(C)O (stereo not drawn)
logP ([1]; read-out: logP): 5.89 | pI50 (Tenebrio molitor): 3.43

CCNC(=O)/C=C(C)/C=C/CC(C)CCCC(C)C (stereo not drawn)
logP ([1]; read-out: logP): 5.24 | pI50 (Tenebrio molitor): 4.76

CCC(C)OC(=O)/C=C(C)/C=C/CC(C)CCCC(C)(C)OC (stereo not drawn)
logP ([1]; read-out: logP): 6.49 | pI50 (Tenebrio molitor): 4.67

C#CCSC(=O)/C=C(C)/C=C/CC(C)CCCC(C)C (stereo not drawn)
logP ([1]; read-out: logP): 5.07 | pI50 (Tenebrio molitor): 3.47

CC(/C=C/CC(C)CCCC(C)(C)OC(C)C)=C\C(=O)OC(C)C (stereo not drawn)
logP ([1]; read-out: logP): 6.9 | pI50 (Tenebrio molitor): 3.01

CCOC(=O)/C=C(C)/C=C/CC(C)CCCC(C)(C)Cl (stereo not drawn)
logP ([1]; read-out: logP): 6.44 | pI50 (Tenebrio molitor): 3.5

C#CCOC(=O)/C=C(C)/C=C/CC(C)CCCC(C)(C)OC (stereo not drawn)
logP ([1]; read-out: logP): 4.66 | pI50 (Tenebrio molitor): 1.34

CCCOC(=O)/C=C(C)/C=C/CC(C)CCCC(C)(C)OC (stereo not drawn)
logP ([1]; read-out: logP): 6.08 | pI50 (Tenebrio molitor): 1.65

CCOC(=O)/C=C(C)/C=C/CC(C)CCCC(C)CC (stereo not drawn)
logP ([1]; read-out: logP): 7.81 | pI50 (Tenebrio molitor): 3.47

CCOC(=O)/C=C(C)/C=C/CC(C)CCC1OC1(C)C (stereo not drawn)
logP ([1]; read-out: logP): 4.76 | pI50 (Tenebrio molitor): 2.22

CCOC(=O)/C=C(C)/C=C/CC(C)CCCC(C)(C)OC (stereo not drawn)
logP ([1]; read-out: logP): 5.54 | pI50 (Tenebrio molitor): 1.92

C=CC(C)OC(=O)/C=C(C)/C=C/CC(C)CCCC(C)(C)OC (stereo not drawn)
logP ([1]; read-out: logP): 5.94 | pI50 (Tenebrio molitor): 4.39

COC(C)(C)C(O)CCC(C)C/C=C/C(C)=C/C(=O)OC(C)C (stereo not drawn)
logP ([1]; read-out: logP): 3.86 | pI50 (Tenebrio molitor): 2.61

CC(/C=C/CC(C)CCCC(C)(C)Cl)=C\C(=O)OC(C)C (stereo not drawn)
logP ([1]; read-out: logP): 6.85 | pI50 (Tenebrio molitor): 3.75

CCC(=O)/C=C(C)/C=C/CC(C)CCCC(C)C (stereo in doubt; 83)
logP ([1]; read-out: logP): 6.27 | pI50 (Tenebrio molitor): 4.89

CCNC(=O)/C=C(C)/C=C/CC(C)CCCC(C)(C)C (stereo not drawn)
logP ([1]; read-out: logP): 5.65 | pI50 (Tenebrio molitor): 4.45

CC(/C=C/CC(C)CCCC(C)C)=C\C(=O)OC(C)C (stereo not drawn)
logP ([1]; read-out: logP): 7.15 | pI50 (Tenebrio molitor): 4.03

COC(C)(C)CCCC(C)C/C=C/C(C)=C/C(=O)OC(C)(C)C (stereo not drawn)
logP ([1]; read-out: logP): 6.36 | pI50 (Tenebrio molitor): 3.81

C=CCSC(=O)/C=C(C)/C=C/CC(C)CCCC(C)(C)OC (stereo not drawn)
logP ([1]; read-out: logP): 6.77 | pI50 (Tenebrio molitor): 2.06

CC(/C=C/CC(C)CCCC(C)C)=C\C(=O)NCC(C)C (stereo not drawn)
logP ([1]; read-out: logP): 6.19 | pI50 (Tenebrio molitor): 0.62

C#CCSC(=O)/C=C(C)/C=C/CC(C)CCCC(C)(C)OC (stereo not drawn)
logP ([1]; read-out: logP): 5.9 | pI50 (Tenebrio molitor): 2.15

CCSC(=O)/C=C(C)/C=C/CC(C)CCCC(C)(C)C (stereo not drawn)
logP ([1]; read-out: logP): 8.39

COC(=O)/C=C(C)/C=C/CC(C)CCCC(C)(C)OC (stereo not drawn)
logP ([1]; read-out: logP): 5 | pI50 (Tenebrio molitor): 0.89

CC(/C=C/CC(C)CCCC(C)(C)C)=C\C(=O)OC(C)C (stereo not drawn)
logP ([1]; read-out: logP): 7.56

CC(/C=C/CC(C)CCCC(C)C)=C\C(=O)SC(C)C (stereo not drawn)
logP ([1]; read-out: logP): 8.39 | pI50 (Tenebrio molitor): 4.22

COC(=O)/C=C(C)/C=C/CC(C)CCCC(C)C (stereo not drawn)
logP ([1]; read-out: logP): 6.2 | pI50 (Tenebrio molitor): 2.2

COC(C)(C)CCCC(C)C/C=C/C(C)=C/C(=O)OC(C)C (stereo not drawn)
logP ([1]; read-out: logP): 5.95
